Measured values as given in patent US6099822A, “Imaging methods and compositions” (priority 1998, dated 2000).

Assays:
[1] = test system: Chinese hamster ovary cells; conditions: in words; cited from earlier work
[2] = test system: MX-1 human breast tumor xenografts; assay: Autoradiographic biodistribution of Tc-99m-TG and C14-DG in nude mice bearing MX-1 tumors; type: in vivo; conditions: MX-1, center of the tumors, in words
Description: 3 mCi (111 MBq) of Tc-99m-5TG and 5 μCi (185 kBq) of C^14 -DG were injected at the same time into the tail vein of the mice. Autoradiogram sections including the tumors and vital organs of the mice were obtained at 20 minutes, 1 hour, and 3 hours post injection and developed using simultaneous Tc-99m and C^14 exposures of the same sections.

| Compound | Exclusion by hypoxic cells [1] | Distribution within tumor [2] |
| --- | --- | --- |
| O=C([O-])CN(CCN(CC(=O)[O-])CC(=O)[O-])CCN(CC(=O)[O-])CC(=O)[O-].[99Tc+4] [Tc-99m-DTPA] | exclusion of Tc-99m-DTPA by hypoxic cells |  |
| C^14 -2-deoxyglucose [C^14 -DG] |  | decreased activity in this central area |
